Read-outs that look alike come from different tables or passages of the source.
Key:
[1] = test system: Key Grass and Sedge Weeds as well as Grass Crops; test: Post-Emergent Test II: postemergent herbicidal activity, visual rating after 14 d (Table 8); type: in vivo; settings: post-emergence, 336 h; for pest or weed control at 35 g/ha: 35 g ai/ha; for pest or weed control at 70 g/ha: 70 g ai/ha; for pest or weed control at 140 g/ha: 140 g ai/ha
Summary of the method: (§1)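 Post-emergence foliar spray, 187 L/ha, first/second true leaf stage plants in potting mix (pH 6.0-6.8). Rates: top rate and 2-fold serial dilutions to 1/16×. Solvent-blank controls. Readout: visual % kill at 14 d.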

[2] = test system: Key Broadleaf Weed and Crop Species; test: Post-Emergent Test II: postemergent herbicidal activity, visual rating after 14 d (Table 7); type: in vivo; settings: post-emergence, 336 h; for pest or weed control at 35 g/ha: 35 g ai/ha; for pest or weed control at 70 g/ha: 70 g ai/ha; for pest or weed control at 140 g/ha: 140 g ai/ha
Summary of the method: as §1

[3] = barnyardgrass (Echinochloa crus-galli), read-out: Visual Growth Reduction (%) 14 Days After Application, ECHCG
[4] = giant foxtail (Setaria faberi), read-out: Visual Growth Reduction (%) 14 Days After Application, SETFA
[5] = maize, corn (Zea mays), read-out: Visual Growth Reduction (%) 14 Days After Application, ZEAMX
[6] = rice (Oryza sativa), read-out: Visual Growth Reduction (%) 14 Days After Application, ORYSA
[7] = wheat, spring (Triticum aestivum), read-out: Visual Growth Reduction (%) 14 Days After Application, TRZAS
[8] = yellow nutsedge (Cyperus esculentus), read-out: Visual Growth Reduction (%) 14 Days After Application, CYPES
[9] = ABUTH: velvetleaf (Abutilon theophrasti), read-out: Visual Growth Reduction (%) 14 Days After Application ABUTH
[10] = AMARE: redroot pigweed (Amaranthus retroflexus), read-out: Visual Growth Reduction (%) 14 Days After Application AMARE
[11] = BRSNN: oilseed rape, canola (Brassica napus), read-out: Visual Growth Reduction (%) 14 Days After Application BRSNN
[12] = CHEAL: lambsquarters (Chenopodium album), read-out: Visual Growth Reduction (%) 14 Days After Application CHEAL
[13] = EPHHL: wild poinsettia (Euphorbia heterophylla), read-out: Visual Growth Reduction (%) 14 Days After Application EPHHL
[14] = HELAN: sunflower (Helianthus annuus), read-out: Visual Growth Reduction (%) 14 Days After Application HELAN

Row | SMILES | pest or weed control at 35 g/ha [1, 3] [%] | pest or weed control at 70 g/ha [1, 3] [%] | pest or weed control at 140 g/ha [1, 3] [%] | pest or weed control at 35 g/ha [1, 4] [%] | pest or weed control at 70 g/ha [1, 4] [%] | pest or weed control at 140 g/ha [1, 4] [%] | pest or weed control at 35 g/ha [1, 5] [%] | pest or weed control at 70 g/ha [1, 5] [%] | pest or weed control at 140 g/ha [1, 5] [%] | pest or weed control at 35 g/ha [1, 6] [%] | pest or weed control at 70 g/ha [1, 6] [%] | pest or weed control at 140 g/ha [1, 6] [%] | pest or weed control at 35 g/ha [1, 7] [%] | pest or weed control at 70 g/ha [1, 7] [%] | pest or weed control at 140 g/ha [1, 7] [%] | pest or weed control at 35 g/ha [1, 8] [%] | pest or weed control at 70 g/ha [1, 8] [%] | pest or weed control at 140 g/ha [1, 8] [%] | pest or weed control at 35 g/ha [2, 9] [%] | pest or weed control at 70 g/ha [2, 9] [%] | also measured
1 | COC(=O)c1nc(-c2ccc3c(c2)COC3)c(F)c(N)c1Cl [Compound 103, Methyl 4-amino-3-chloro-6-(1,3-dihydroisobenzofuran-5-yl)-5-fluoropicolinate] | 0 to 29 | 0 to 29 | 0 to 29 | 0 to 29 | 0 to 29 | 0 to 29 | 0 to 29 | 0 to 29 | 0 to 29 | 0 to 29 | 0 to 29 | 0 to 29 | 0 to 29 | 0 to 29 | 0 to 29 | 0 to 29 | 0 to 29 | 0 to 29 | 0 to 29 | 0 to 29 | pest or weed control at 140 g/ha [2, 9]: 0 to 29%; pest or weed control at 35 g/ha [2, 10]: 0 to 29%; pest or weed control at 70 g/ha [2, 10]: 0 to 29%; pest or weed control at 140 g/ha [2, 10]: 0 to 29%; pest or weed control at 35 g/ha [2, 11]: 0 to 29%; pest or weed control at 70 g/ha [2, 11]: 0 to 29%; pest or weed control at 140 g/ha [2, 11]: 0 to 29%; pest or weed control at 35 g/ha [2, 12]: 45 to 59%; pest or weed control at 70 g/ha [2, 12]: 85 to 94%; pest or weed control at 140 g/ha [2, 12]: 95 to 100%; pest or weed control at 35 g/ha [2, 13]: 0 to 29%; pest or weed control at 70 g/ha [2, 13]: 0 to 29%; pest or weed control at 140 g/ha [2, 13]: 0 to 29%; pest or weed control at 35 g/ha [2, 14]: 75 to 84%; pest or weed control at 70 g/ha [2, 14]: 75 to 84%; pest or weed control at 140 g/ha [2, 14]: 75 to 84%
2 | Nc1c(F)c(-c2ccc3c(c2)COC3)nc(C(=O)O)c1Cl [Compound 104] | 0 to 29 | 0 to 29 | 0 to 29 | 0 to 29 | 0 to 29 | 0 to 29 | 0 to 29 | 0 to 29 | 0 to 29 | 0 to 29 | 0 to 29 | 0 to 29 | 0 to 29 | 0 to 29 | 0 to 29 | 0 to 29 | 0 to 29 | 0 to 29 | 0 to 29 | 0 to 29 | pest or weed control at 140 g/ha [2, 9]: 0 to 29%; pest or weed control at 35 g/ha [2, 10]: 0 to 29%; pest or weed control at 70 g/ha [2, 10]: 0 to 29%; pest or weed control at 140 g/ha [2, 10]: 0 to 29%; pest or weed control at 35 g/ha [2, 11]: 0 to 29%; pest or weed control at 70 g/ha [2, 11]: 0 to 29%; pest or weed control at 140 g/ha [2, 11]: 0 to 29%; pest or weed control at 35 g/ha [2, 12]: 45 to 59%; pest or weed control at 70 g/ha [2, 12]: 85 to 94%; pest or weed control at 140 g/ha [2, 12]: 85 to 94%; pest or weed control at 35 g/ha [2, 13]: 0 to 29%; pest or weed control at 70 g/ha [2, 13]: 0 to 29%; pest or weed control at 140 g/ha [2, 13]: 0 to 29%; pest or weed control at 35 g/ha [2, 14]: 45 to 59%; pest or weed control at 70 g/ha [2, 14]: 75 to 84%; pest or weed control at 140 g/ha [2, 14]: 75 to 84%

— patent US9149038B2, “4-amino-6-(heterocyclic)picolinates and 6-amino-2-(heterocyclic)pyrimidine-4-carboxylates and their use as herbicides” (Dow AgroSciences LLC, priority 2013, dated 2015)
